# In patent US20220143010A1, “CANCER TREATMENT COMPRISING NALTREXONE AND A CANNABINOID” (LDN Pharma Limited, priority 2019, published 2022):
# “Also recorded” adds a separate entry of the source. Like-named read-outs stand apart in the source and are kept apart here.
# Columns and labels:
# Type in all cases: cell-based
# CB2 = assay: Western blot of CB2 levels in MCF7 cultures after two days of treatment; conditions: for levels of the CB2 receptor after treatment: cancer cells (MCF7), summary statement
# Experimental: Levels of Bcl2-associated death promoter (BAD), p21 protein, the opioid receptors kappa 1 (OPRK1) and mu 1 (OPRM1), and the cannabinoid receptors CBR1 (CB1) and CBR2 (CB2) are visualised by Western blot (left) against GAPDH as a loading control, and quantified via density analysis relative to GAPDH (right).
# One illustrative and non-limiting experiment was carried out on cultures of MCF7 (breast cancer) cells. In brief, either LDN at 10 nM or 6BN at 1 μM or 10 μM was administered in vitro to a culture for two days, after which the expression levels of BAD, p21, opioid receptors kappa and mu, CB1, CB2, and GAPDH (as a loading control) were analysed via Western blot and subsequent quantification via density measurement of the bands.
# In full, MCF7 cells were seeded into 6-well plates at a density of 1×10^5/well and left to adhere over-night. Naltrexone (10 nM) or 6-β-naltrexol (1 μM or 10 μM) were added to the cells before harvesting cells for western blot analysis. Primary probing was performed with specific antibodies generated against BAD, p21, OPRK1, […], CBR-1 and CBR-2. […] Anti-GAPDH was used as a loading control. All antibodies were used at a dilution of 1:1000, followed by the appropriate HRP conjugated secondary antibodies also at a dilution of 1:1000. Bands were visualised by the SuperSignal chemiluminescent detection system, and densitometry of band intensity was determined using Adobe Photoshop CS3, v10.0, and normalised to the loading control.
# [1] = test system: MCF7 (breast cancer) cells; assay: Two-stage sequential treatment, cell number and viability (trypan blue); conditions: LDN 10 nM or 6BN 10 μM for 48 h before cannabidiol 10 μM for 48 h, versus reversed sequence
# Experimental: Each treatment lasted four days and consisted of two days of treatment with the first agent (UN=control, LDN=Low Dose Naltrexone at 10 nM CBD=Cannabidiol, 6BN=6-β-naltrexol) before the second-named agent was introduced for a further two days.
# Another illustrative and non-limiting experiment was carried out on cultures of MCF7 (breast cancer) cells. In brief, the cultures were treated with LDN or 6BN for two days, after which a cannabinoid was administered for a further two days. Cell number and viability were assessed on day four. The sequence of the administration for each therapeutic agent was reversed and the experiment repeated.
# In full, MCF7 cells were seeded into 6-well plates at a density of 1.5×10^4/well and left to adhere. Cells were then cultured with naltrexone (10 nM), 6-β-naltrexol (10 μM) or cannabidiol (10 μM). Drug-containing media was removed after 48 h, and cells were rinsed gently with drug-free medium. Fresh culture medium was then added to the cells supplemented with either naltrexone (10 nM), 6-β-naltrexol (10 μM) or cannabidiol (10 μM), as indicated in the graph. Cell number and viability were assessed a further 48 h later, with percentages of live and dead cells being discriminated by trypan blue dye exclusion. Data were then consolidated to compare the effect of sequence on overall effect.
# A549 (lung cancer) cells = assay: Two-block schedule LDN+CBD and chemotherapeutic agent, cell number and viability at 96 h
# Experimental: • A549 (lung cancer) and HCT116 (colon cancer) cells were cultured with drugs according to the schedules in Table 1. The schedules lasted a total of 96 h. • Treatments were separated into two blocks, each lasting 48 h. Due to the complications of cell testing using three different drugs in three different treatment phases, the CBD and LDN were administered together in one treatment phase and the chemotherapeutic agent in the other treatment phase. • There was a washout period between the two blocks, where exhausted media containing drugs were removed, cells then washed, before fresh media was added that contained the next block of treatment. • The chemotherapeutic agents were gemcitabine (GEM) or oxaliplatin (OXP), and used at an ˜IC20 concentration (1 uM). Low dose naltrexone (LDN) was used at 10 nM and cannabinoid (CBD) was used at 1 uM. “0” means nothing was administered and is used as a control. • Cell number and percentage cell viability were assessed at 96 h. Data were then consolidated to compare the effect of sequence on overall effect.
Compound,"rise of CB2 compared among the three treatments (CB2; MCF7 cells, 10 μM 6BN, two days)",levels of the CB2 receptor after treatment (CB2),"effect on inhibiting the proliferation of the cancer, by sequence [1]","IC20 (A549 (lung cancer) cells; Homo sapiens, A549, read-out: IC20 concentration) [nM]","IC20 (A549 (lung cancer) cells; concentration used in Example 3, A549 and HCT116, cell line not specified, read-out: IC20 concentration) [nM]"
"Oc1ccc2c3c1OC1C(O)CC[C@@]4(O)[C@@H](C2)N(CC2CC2)CC[C@]314 (stereo partly shown) [6BN, N-cyclopropylmethyl-7,8-dihydro-14-hydroxynorisomorphine]",highest,significant increase,greater effect on inhibiting the proliferation,–,–
"Nc1ccn([C@@H]2O[C@H](CO)[C@@H](O)C2(F)F)c(=O)n1 [GEM, gemcitabine]",–,–,–,~1000,–
"O=C1CC[C@@]2(O)[C@H]3Cc4ccc(O)c5c4[C@@]2(CCN3CC2CC2)[C@H]1O5 [LDN, 17-cyclopropylmethyl-4.5α-epoxy-3,14-dihydroxymorphinan-6-one]",–,significant increase; also recorded: increased significantly,greater effect on inhibiting the proliferation,–,–
"O=C1[O][Pt]2([NH][C@@H]3CCCC[C@H]3[NH]2)[O]C1=O [OXP, oxaliplatin]",–,–,–,–,~1000
